Results on two compounds are retold here after US10981911B2, “Imidazopyrrolopyridine as inhibitors of the JAK family of kinases” (Janssen Pharmaceutica NV, priority 2016, dated 2021).

By Papp A→B is commonly meant how fast a substance crosses the layer from the apical side. A lower Papp A→B goes with poor permeation. The term Papp B→A denotes the apparent permeability from the basolateral to the apical side of a cell layer. For orientation: solubility means the dissolved amount per volume that the medium holds.

The subject of one data set is P-gp (MDR1). Put plainly: MDCK-MDR1 permeability assay. Type of data set: in vitro ADME. The following applies: dog, MDCK-MDR1, pH 7.4, @ 5 μM; for Papp A→B at 60 min, 5 μM: apical to basolateral, without P-gp inhibitor; for Papp B→A at 60 min, 5 μM: basolateral to apical. The protocol: Permeability measurements were conducted according to the Cyprotex protocol using the MDCK-MDR1 cell line obtained from the NIH (Rockville, Md., USA). Cells between passage numbers 6-30 were seeded onto a Multiscreen Plate™ (Millipore) at a cell density of 3.4×10^5 cells/cm^2 and cultured for three days before permeability studies were conducted. The cells in this assay form a cohesive sheet of a single cell layer filing the surface area of the culture dish, also known as a confluent monolayer, and on day four the test compound was added to the apical side of the membrane and the transport of the compound across the monolayer was monitored over a time period of 60 min.
Test compounds were dissolved in DMSO at a concentration of 10 mM. The dosing solutions were prepared by diluting test compound with assay buffer (Hanks Balanced Salt Solution), pH 7.4, at a final concentration of 5 μM. For assessment of apical to basolateral (“A-B”) permeability, buffer was removed from the apical compartment and replaced with test compound dosing solution with or without the permeability glycoprotein (“PgP”, “P-gP”, “Pgp” or “P-gp”) inhibitor elacridar (2 μM). For assessment of basolateral to apical (“B-A”) permeability, buffer was removed from the companion plate and replaced with test compound dosing solution. Incubations were carried out in duplicate at 37° C. in an atmosphere of 5% CO2 with a relative humidity of 95%. Each assay included the reference markers propranolol (high permeability) and prazosin (PgP substrate). After incubation for 60 minutes, apical and basolateral samples were diluted and test compounds quantified by LC/MS/MS using an 8-point calibration in the range 0.0039 to 3 μM with appropriate dilution of the samples (receiver dilution factor=1; donor and C0 dilution factor=10). The permeability coefficient (Papp) for each compound was calculated from the following equation: Papp=(dQ/dt)/(C0×S), where dQ/dt is the rate of permeation of the drug across the cells, C0 is the donor compartment concentration at time zero, and S is the area of the cell monolayer.
The second and third columns in Table 7 show the values of Papp(A-B) for the apical-to-basolateral compound transport without (second column) and with a P-gp inhibitor (third column, noted as P^eapp(A-B)) that was elacridar. Papp(A-B) gives an indication of permeation extent across the cells in this assay, which is envisaged to model the transcellular transport across Pgp-expressing cells, such as Pgp-expressing gastrointestinal tract cells. P^eapp(A-B) values (Papp(A-B) in the presence of the P-gp inhibitor) given in column 3 are determined to confirm the role of P-gp in the compound efflux. […] Test compound efflux ratios are given in the fifth column of Table 7 as Papp(B-A)/Papp(A-B) by using the corresponding permeability coefficient values from the fourth and second columns in the same table.

Data set [1] in a line: In vivo p.o. dosing: plasma and colon tissue concentrations (Protocols 1 and 2). Further details: species or system female C57BL/6 mice. The following applies: female, C57BL/6, mouse, po, mice, 25 mg/kg p.o. The protocol:
These protocols are described below under the heading In vivo Studies. Three non-fasted female C57BL/6 mice were orally administered test compound at a dose of 25 mg/kg p.o. as a solution in 20% hydroxypropyl-beta-cyclodextrin (HPβCD) at a dose volume of 5 mL/kg. Blood samples were collected at 0.5, 2, and 4 h post dose via retro-orbital bleed or venipuncture of the dorsal metatarsal vein. Blood samples were collected into tubes containing anticoagulant (Heparin-Na) and placed on wet ice. The plasma fraction was separated by centrifugation and frozen at −20° C. for up to 4 h and −80° C. after 4 h unless analyzed shortly after sample collection. Colon samples were collected at 4 h post dose. […] The colon was further washed by putting it in 5 mL of saline and shaken for 5 seconds. The colon sample was then patted dry, weighed, and homogenized as 1 part tissue (g) to 4 parts HPLC grade water (mL). Concentrations of the compound in plasma and colon homogenate were determined using a qualified liquid chromatography-triple quadrupole mass spectrometry (LC-MS/MS) method. […] Three non-fasted female C57BL/6 mice were orally administered test compound at a dose of 25 mg/kg p.o. as a solution in 20% HPβCD at a dose volume of 5 mL/kg. Blood samples were collected at 0.5, 2, and 4 h post dose via retro-orbital bleed or dorsal metatarsal vein. Blood samples were collected into tubes containing anticoagulant (Heparin-Na) and placed on wet ice. The plasma fraction was separated by centrifugation and frozen at −20° C. for up to 4 h and −80° C. after 4 h unless analyzed shortly after sample collection. Colon samples were collected at 4 h post dose. From 2 cm below the cecum, a 4 cm sample of the colon was dissected, cut open on the longitudinal axis, and the solid contents removed by flushing with 2 mL of saline. The colon was further washed by putting it in 5 mL of saline and shaken for 5 seconds. The colon sample was then patted dry, weighed, and homogenized as 1 part tissue (g) to 4 parts HPLC grade water (mL). Concentrations of the compound in plasma and colon homogenate were determined using a qualified liquid chromatography-triple quadrupole mass spectrometry (LC-MS/MS) method.

Data set [2] can be described thus: Solubility assays in simulated gastric and simulated intestinal fluids. Type of data set: physicochemical. The following applies: thermodynamic from solid, 2-5 days. How it is done:
Test compounds were dissolved in DMSO at a concentration of 10 mM. The test compounds were dispensed (20 μL) into Nunc 1-mL-96-Deep-Well-PP plates, and the DMSO was evaporated via nitrogen blow down from a TurboVap 96 for 6 hours or until a dry residue was produced. Then, 400 μL of solubility media was added to the well containing the dry solid. […] After the incubation period, the samples were filtered through an AcroPrep 1-mL-96-Filter plate into a new 2-mL-96-Deep-Well-PP plate, and the supernatants were quantified by UV-HPLC using a 3-point calibration ranging from 0.004-0.55 mM. The solubility for each compound was calculated from the following equation: […] Solubilities are reported as long as the compound under study was sufficiently stable to complete the corresponding solubility determination.

The mark [3] stands for this setting: colon, read-out: Colon Concentration After p.o. Dosing, Mean.
Setting [4] is: fassif, simulated intestinal fluid, fasted state pH 6.5, ambient temperature, read-out: SIF solubility.
[5] abbreviates: simulated gastric fluid, ambient temperature, read-out: SGF solubility.

Each structure is given as a SMILES string. Read-outs that look alike come from different tables or passages of the source.

`N#CC[C@H]1CC[C@H](n2c(CC(=O)Nc3cc[nH]n3)nc3cnc4[nH]ccc4c32)CC1` [Ex. 74, 2-(1-((1r,4r)-4-(Cyanomethyl)cyclohexyl)-1,6-dihydroimidazo[4,5-d]pyrrolo[2,3-b]pyridin-2-yl)-N-(1H-pyrazol-3-yl)acetamide]: in the data set on P-gp (MDR1), the Papp A→B at 60 min, 5 μM was < 0.4 ×10⁻⁶ cm/s and the apparent permeability from basolateral to apical (Papp B→A) at 60 min, 5 μM was determined as 1.1 ×10⁻⁶ cm/s. The concentration at 4 h in data set [1] (setting [3]) amounted to 4780 ng/g. Further, the solubility in data set [2] (setting [4]) was > 400 µM. In addition, in data set [2] (setting [5]), the solubility was > 400 µM.
Consider `Cn1cc(NC(=O)Cc2nc3cnc4[nH]ccc4c3n2[C@H]2CC[C@H](CC#N)CC2)cn1` [Ex. 38, 2-(1-((1r,4r)-4-(Cyanomethyl)cyclohexyl)-1,6-dihydroimidazo[4,5-d]pyrrolo[2,3-b]pyridin-2-yl)-N-(1-methyl-1H-pyrazol-4-yl)acetamide], for which the apical-to-basolateral permeability (Papp A→B) at 60 min, 5 μM with P-gp (MDR1) was < 0.4 ×10⁻⁶ cm/s. For the same compound, the apparent permeability from basolateral to apical (Papp B→A) at 60 min, 5 μM with P-gp (MDR1) came to 1.8 ×10⁻⁶ cm/s. In addition, the concentration at 4 h was determined as 7680 ng/g in data set [1] (setting [3]) and 3.9 ng/mL in data set [1] (plasma, read-out: Plasma Concentration After p.o. Dosing, Mean). In addition, the concentration at 0.5 h in data set [1] (plasma, Time = 0.5 h, read-out: Plasma Concentration After p.o. Dosing, Mean) is 15.1 ng/mL. In addition, the concentration at 2 h in data set [1] (plasma, Time = 2 h, read-out: Plasma Concentration After p.o. Dosing, Mean) came out at 6.2 ng/mL. The solubility in data set [2] (setting [4]) and in data set [2] (setting [5]) was > 400 µM each time.
